The results in this text go back to US10440955B2, “Methods comprising a biocidal polyamine” (Curza Global, LLC, priority 2013, dated 2019).

For one data set, the system named is P. aeruginosa. Put plainly: MIC, 96-well CAMHB, 10^5 to 10^2 CFU/mL in 24 hours. In kind it is cell-based, Pseudomonas aeruginosa. The following applies: for MIC: Pseudomonas aeruginosa. How it is done:
(§1) To determine the MIC of polyamine compounds, the protocol described herein was used.
(§2) In brief, a 0.5 McFarland of each bacterial isolate was made. A 0.5 McFarland is a measure of turbidity in a liquid sample that contains approximately 1×10^∧8 CFU/mL. The 0.5 McFarland standard was diluted in cation adjusted Mueller Hinton Broth (CAMHB), and 50 μL of broth were added to a well of a 96-well plate. In addition, 50 μL of CAMHB that contained a desired concentration of antimicrobial were also added to the well for a final volume of 100 μL and a final concentration of approximately 5×10^4 CFU/well (which equated to approximately 5×10^5 CFU/mL). Each well contained a desired amount of polyamine compound in order to experimentally determine the MIC. Each 96-well plate was incubated at 37° C. for 24 hours. The contents of each well were plated on tryptic soy agar (TSA). TSA plates were incubated for 37° C. for 24 hours after which the number of CFU were counted and used to calculate the CFU/mL that remained after exposure to varying concentrations of compound. This procedure was repeated n=8 times for each concentration of antimicrobial.

A further data set concerns MRSA. The description is as above. Particulars: for MIC: Staphylococcus aureus, MRSA, read-out: MIC (MRSA). Type of data set: cell-based, Staphylococcus aureus. On the procedure:
as §1
as §2, with “antimicrobial. […]” for “antimicrobial.”

In another data set the test system is L-929 cells (ATCC CCL-1). Put plainly: Minimal Essential Media (MEM) Elution cytotoxicity test. In kind it is cell-based. The following applies: Table 10A. How it is done:
Summary: The Minimal Essential Media (MEM) Elution test was designed to determine the cytotoxicity of extractable substances. The test article was added to cell monolayers and incubated. The cell monolayers were examined and scored based on the degree of cellular destruction.
Acceptance Criteria: The United States Pharmacopeia & National Formulary (USP <87>) states that the test article meets the requirements, or receives a passing score (Pass) if the reactivity grade is not greater than grade 2 or a mild reactivity.
Acceptance criteria were based upon the negative and media controls receiving “0” reactivity grades and positive controls receiving a 3-4 reactivity grades (moderate to severe).
The cell monolayers were examined microscopically. The wells were scored as to the degree of discernable morphological cytotoxicity on a relative scale of 0 to 4:
The results from the three wells were averaged to give a final cytotoxicity score.
[…] This initial concentration was then diluted 1: 2, 1:4, 1:8, and 1:16. Multiple well cell culture plates were seeded with a verified quantity of industry standard L-929 cells (ATCC CCL-1) and incubated until approximately 80% confluent. The test articles and control extracts were added to the cell monolayers in triplicate. The cells were incubated at 37±1° C. with 5±1% CO2 for 48±3 hours.

[1] abbreviates: read-out: MIC (P. aeruginosa), Table 5.
Where [2] appears, read: Table 5, read-out: MIC (P. aeruginosa).

Values after ≈ are worked out from the molar mass of the structure shown. Structures can show the parent of a compound that is named as a salt. Where two headings read alike, the source gives them in different places. Bounds are passed on as bounds.

Consider `NCCCCNCc1ccccc1` [CZ-3, N^1-benzylbutane-1,4-diaminium chloride], for which the minimal inhibitory concentration (MIC) (in general, the smallest concentration in the dilution series that meets the test's criterion for growth inhibition) in the data set on P. aeruginosa (setting [1]) is greater than 100 µM.
Take `NCCCCCCCCCCCCNCc1ccccc1` [CZ-5, N^1-benzyldodecane-1,12-diamine, hydrochloride salt]: in the data set with MRSA, the MIC was greater than 100 µM.
On the same count and under the same terms, in the case of `NCCCCCCNCc1ccccc1` [CZ-9, N^1-benzylhexane-1,6-diamine, hydrochloride salt] it was greater than 100 µM; in that of `CN(C)CCCCCCCCCCCCN(C)Cc1ccccc1` [CZ-10, N^1-Benzyl-N^1,N^12,N^12-trimethyldodecane-1,12-diamine, hydrochloride salt], greater than 100 µM.
Take `NCCCNCCCNCc1cccc(CNCCCNCCCN)c1` [CZ-25 (Bz)]: the MIC in the data set on MRSA (Table 5) is less than 50 µM.
Still for that read-out and setting: in the case of `CC(C)(C)OC(=O)NCCCNCCCNCc1cccc(CNCCCNCCCNC(=O)OC(C)(C)C)c1` [CZ-27, di-tert-butyl (((((1,3-phenylenebis(methylene))bis(azanediyl))bis(propane-3,1-diyl))bis(azanediyl))bis(propane-3,1-diyl))dicarbamate] it was greater than 100 µM; in that of `NCCCNC(=O)c1cccc(C(=O)NCCCN)c1` [CZ-41], greater than 100 µM.
As for `NCCCNCCCNCc1cccc(CNCCCNCCCN)c1` [CZ-42], in the data set with MRSA (Table 5), the “MIC (MRSA)” value is reported as “++ (++ = 100 μM ≥ MIC ≥ 50 μM. MIC results of “>n μM” or “<n μM” will also be designated as ++ if 100 ≥ n ≥ 50.)”. Moreover, the minimum inhibitory concentration (MIC) in the data set on P. aeruginosa (setting [2]) lay within 50 to 100 µM (≈ 18.2 to 36.5 µg/mL).
Consider `CC(C)(C)OC(=O)NCCCNCCCNCc1cc(CNCCCNCCCN)cc(CNCCCNCCCN)c1` [CZ-51, tert-butyl (3-((3-((3,5-bis(((3-((3-aminopropyl)amino)propyl)amino)methyl)-benzyl)amino)propyl)amino)propyl)carbamate], for which the MIC in the data set with MRSA (Table 5) and in the data set with P. aeruginosa (setting [2]) was less than 50 µM in each case.
As to `NCCCNCCCNCc1cc(CO)cc(CNCCCNCCCN)c1` [CZ-53, (3,5-bis(((3-((3-aminopropyl)amino)propyl)amino)methyl)phenyl)-methanol, hydrochloride salt], in the data set with P. aeruginosa (Table 5), the “MIC (P. aeruginosa)” value is “++ to +++”.
Take `CC(C)Oc1ccc(-c2cc(CNCCCNCCCN)cc(CNCCCNCCCN)c2)cc1CNCCCNCCCN` [CZ-66, N^1,N^1′,N^1″-((4′-isopropoxy-[1,1′-biphenyl]-3,3′,5-triyl)tris(methylene))-tris(N^3-(3-aminopropyl)propane-1,3-diamine), hydrochloride salt]: the “Results Pass/Fail” value is reported as “Fail (a numerical grade greater than 2 is considered a cytotoxic effect, or a failing score (Fail))” in the data set on L-929 cells (ATCC CCL-1) (25 μg/mL); “Fail (a numerical grade greater than 2 is considered a cytotoxic effect, or a failing score (Fail))” with L-929 cells (ATCC CCL-1) (dilution 1:2 of 25 μg/mL); “Pass (receives a passing score (Pass) if the reactivity grade is not greater than grade 2 or a mild reactivity)” in the data set on L-929 cells (ATCC CCL-1) (dilution 1:4 of 25 μg/mL); “Pass (receives a passing score (Pass) if the reactivity grade is not greater than grade 2 or a mild reactivity)” in the data set on L-929 cells (ATCC CCL-1) (dilution 1:8 of 25 μg/mL); “Pass (receives a passing score (Pass) if the reactivity grade is not greater than grade 2 or a mild reactivity)” in the data set with L-929 cells (ATCC CCL-1) (dilution 1:16 of 25 μg/mL).
Regarding `NCCCNCCCNCc1cc(CNCCCNCCCN)cc(-c2cc(C(F)(F)F)cc(C(F)(F)F)c2)c1` [CZ-70, N^1,N^1′-((3′,5′-bis(trifluoromethyl)-[1,1′-biphenyl]-3,5-diyl)bis(methylene))bis(N^3-(3-aminopropyl)propane-1,3-diamine), hydrochloride salt], the MIC with MRSA and in the data set with P. aeruginosa (setting [1]) was less than 50 µM in each case.
As for `NCCCNCCCNCc1cc(CNCCCNCCCN)cc(Oc2ccccc2)c1` [CZ-74, N^1,N^1′-((5-phenoxy-1,3-phenylene)bis(methylene))bis(N^3-(3-aminopropyl)propane-1,3-diamine), hydrochloride salt], the MIC in the data set on MRSA and in the data set on P. aeruginosa (setting [1]) was less than 50 µM throughout.
On to `NCCCNCCCNCc1cc(CNCCCNCCCN)cc(-c2ccc(F)cc2)c1` [CZ-75, N^1,N^1′-((4′-fluoro-[1,1′-biphenyl]-3,5-diyl)bis(methylene))bis(N3-(3-aminopropyl)propane-1,3-diamine), hydrochloride salt], for which the MIC in the data set on MRSA and in the data set on P. aeruginosa (setting [1]) was less than 50 µM in each case.
With `CCCCOc1cc(CNCCCNCCCN)cc(CNCCCNCCCN)c1` [CZ-76, N^1,N^1′-((5-butoxy-1,3-phenylene)bis(methylene))bis(N3-(3-aminopropyl)propane-1,3-diamine), hydrochloride salt], the MIC in the data set with MRSA is less than 50 µM; with P. aeruginosa (setting [1]), 50 to 100 µM.
Taken in the same sequence, the figures for `NCCCNCc1cc(CNCCCN)cc(-c2ccccc2)c1` [CZ-77, N^1,N^1′-([1,1′-biphenyl]-3,5-diylbis(methylene))bis(propane-1,3-diamine), hydrochloride salt] were less than 50 µM and less than 50 µM.
Take `NCCCNCCCNCc1cc(O)cc(CNCCCNCCCN)c1` [CZ-87, 3,5-bis(((3-((3-aminopropyl)amino)propyl)amino)methyl)phenol]: the MIC in the data set with MRSA (Table 5) and in the data set on P. aeruginosa (setting [2]) was less than 50 µM each time.
In the case of `NCCCNCCCNCc1cc(CNCCCNCCCN)cc(-c2ccc(C(=O)N3CCCCC3)cc2)c1` [CZ-88, (3′,5′-Bis(((3-((3-aminopropyl)amino)propyl)amino)methyl)-[1,1′-biphenyl]-4-yl) (piperidin-1-yl)methanone], the MIC with MRSA (Table 5) and in the data set with P. aeruginosa (setting [2]) was less than 50 µM in each case.
`O=C1NCCCN1CCCNCc1cc(CNCCCN2CCCNC2=O)cc(-c2ccccc2)c1` [CZ-89, 1,1′-((([1,1′-biphenyl]-3,5diylbis(methylene))bis(azanediyl))bis(propane-3,1-diyl))bis(tetrahydropyrimidin-2(1H)-one)]: the MIC in the data set on MRSA (Table 5) and with P. aeruginosa (setting [2]) was less than 50 µM throughout.
Regarding `CCC(CC)COc1cc(CNCCCNCCCNCC(C)C)cc(CNCCCNCCCNCC(C)C)c1` [CZ-91, N^1,N^1′-((5-(2-ethylbutoxy)-1,3-phenylene)bis(methylene))bis(N^3-(3-(isobutylammonio)propyl)propane-1,3-diaminium) chloride], the MIC in the data set on MRSA and in the data set on P. aeruginosa (setting [1]) was less than 50 µM each time.
For `CC(C)Oc1cc(CNCCCNCCCN)cc(CNCCCNCCCN)c1` [CZ-93, N^1,N^1′-((5-isopropoxy-1,3-phenylene)bis(methylene))bis(N^3-(3-aminopropyl)propane-1,3-diamine)], the MIC in the data set with MRSA (Table 5) and in the data set on P. aeruginosa (setting [2]) was less than 50 µM in each case.
As to `c1ccc(CNCCCNCCCNCc2cc(CNCCCNCCCNCc3ccccc3)cc(-c3ccccc3)c2)cc1` [CZ-94, N^1,N^1′-([1,1′-biphenyl]-3,5-diylbis(methylene))bis(N^3-(3-(benzylamino)propyl)propane-1,3-diamine)], the MIC in the data set on MRSA (Table 5) and in the data set on P. aeruginosa (setting [2]) was less than 50 µM each time.
Take `NCCCNCCCNCc1cc(CNCCCNCCCN)cc(OCc2ccccc2)c1` [CZ-95, N^1,N^1′-((5-(Benzyloxy)-1,3-phenylene)bis(methylene))bis(N^3-(3-aminopropyl)propane-1,3-diamine), hydrochloride salt]: the MIC in the data set with MRSA and with P. aeruginosa (setting [1]) was less than 50 µM each time.
With `c1cc(CNCCCNCCCNCC2CCCCC2)cc(CNCCCNCCCNCC2CCCCC2)c1` [CZ-97, N^1,N^1′-(1,3-phenylenebis(methylene))bis(N^3-(3-((cyclohexylmethyl)-amino)propyl)propane-1,3-diamine)], the MIC in the data set on MRSA (Table 5) and in the data set on P. aeruginosa (setting [2]) was less than 50 µM each time.
